{"source": "patent US20250354127A1", "about": "“CRYOPRESERVED DAIRY GOAT SEMEN METABOLITE SCREENING AND DILUENT PREPARATION METHOD” (NORTHWEST A&F UNIVERSITY, priority 2024, published 2025)", "key": {"[1]": {"tested_on": "dairy goat sperms", "assay": "Sperm viability and motility by CASA semen assisted analysis during preservation at 4 degrees C.", "format": "cell-based", "protocol": "1) prepare base diluent: add 30.3 g/L Tris, 16.0 g/L citric acid, 6.4 g/L glucose, 6.4 g/L D-fructose, 2.5 g/L trehalose, 1.0 g/L BSA and 3.75 g/L soybean lecithin into distilled water to 1 L, dissolve in a water bath for 1 hour at 37 degrees C., filter and sterilize, and then add 1 million IU/L penicillin and 1 million IU/L streptomycin; select semen with motility more than 80% for preservation, and keep diluent warm in a water bath at 37 degrees C. before semen dilution; gradually dilute at the dilution ratio (add the diluent into each group of semen along the tube wall during the operation), dilute the semen with the diluent at 1:1 and stand for 3 minutes, then dilute the semen with the diluent at 1:3 and stand for 3 minutes, and let the ratio of semen to diluent reach 1:7 (keep the temperature at 33-35 degrees C. during dilution); bind a centrifuge tube containing the diluted semen with a rubber band and put the centrifuge tube into a beaker containing isothermal water, keep the centrifuge tube vertical and the water level in the beaker higher than the diluent level of in the centrifuge tube, place for 1 hour at room temperature, put the beaker into a refrigerator at 4 degrees C., keep the cooling rate at 8-10 degrees C./h, and shake the centrifuge tube every 8 hours to prevent the sperms from accumulating, sinking to bottom and resulting in death;\n2) take 5 μL of semen on the days 0, 1, 3 and 5 of semen preservation, put the semen on slides, preheat an objective table and perform microscopic examination at 37 degrees C., and detect semen motility and viability by Meilan CASA semen assisted analysis system; select at least five random fields of view for determination, with a minimum semen count of 200 in each field; the ratio of number of live sperms to total number of sperms is sperm viability, and the ratio of number of linearly moving sperms to total number of sperms is sperm motility. Average the results, and record the test data (see Table 1);\n(§1) 1) add different concentrations of gamma-aminobutyric acids into a tupping ram semen base diluent, and take a group without gamma-aminobutyric acid added as the control group; take a group with gamma-aminobutyric acid added as the experimental group, the addition concentrations are respectively 0.5 g/L, 1.0 g/L, 1.5 g/L and 2.0 g/L, and six duplications exist in each group; screen out the optimal concentration of gamma-aminobutyric acid according to semen quality indexes, set the optimal concentration to T group, and detect the semen membrane and acrosome integrity, various antioxidant enzyme activities and ROS content change after adding the optimal concentration of gamma-aminobutyric acid;"}, "[2]": {"assay": "Sperm plasma membrane integrity (PMI) by SYBR-14/PI fluorescence staining", "format": "cell-based, dairy goat", "source_text": "as §1"}, "[3]": {"tested_on": "tupping ram sperms", "assay": "Sperm acrosome integrity (CGI) by FITC-PNA fluorescence staining", "format": "cell-based, dairy goat", "source_text": "as §1"}, "[4]": {"tested_on": "sperms", "assay": "Antioxidant indexes of sperms (T-AOC, SOD, GSH-Px, MDA, CAT, ROS) by Solarbio kits", "format": "cell-based, dairy goat", "source_text": "as §1"}, "[5]": {"conditions": "0.5 g/L in base diluent, Day 5 at 4 degrees C."}, "[6]": {"conditions": "1.0 g/L in base diluent, Day 5 at 4 degrees C."}, "[7]": {"conditions": "1.5 g/L in base diluent, Day 5 at 4 degrees C."}, "[8]": {"conditions": "2.0 g/L in base diluent, Day 5 at 4 degrees C."}, "[9]": {"conditions": "experimental group, day 5 of preservation at 4 degrees C."}, "[10]": {"conditions": "optimal concentration (T group), day 3 of preservation at 4 degrees C., P<0.05"}, "[11]": {"conditions": "preservation day not given, P<0.05"}}, "note": "Marks after values point to notes of the source that are not given here.", "data": [{"smiles": "NCCCC(=O)O", "note": "[gamma-aminobutyric acid, Gamma-aminobutyric acid]", "values": [{"measurement": "Semen motility %", "setting": "[1]; 0.5 g/L in base diluent, Day 0", "value": "81.36 ± 2.05", "unit": "%"}, {"measurement": "Sperm viability %", "setting": "[1]; 0.5 g/L in base diluent, Day 0", "value": "84.12 ± 2.15", "unit": "%"}, {"measurement": "Semen motility %", "setting": "[1]; [5]", "value": "50.69 ± 1.05^b %"}, {"measurement": "Sperm viability %", "setting": "[1]; [5]", "value": "52.45 ± 1.22^b %"}, {"measurement": "Sperm motility compared with other addition groups", "setting": "[1]; 1 g/L", "value": "higher than those in other addition groups"}, {"measurement": "Sperm viability compared with other addition groups", "setting": "[1]; 1 g/L", "value": "higher than those in other addition groups"}, {"measurement": "Semen motility %", "setting": "[1]; 1.0 g/L in base diluent, Day 0", "value": "81.36 ± 2.05", "unit": "%"}, {"measurement": "Sperm viability %", "setting": "[1]; 1.0 g/L in base diluent, Day 0", "value": "84.12 ± 2.15", "unit": "%"}, {"measurement": "Semen motility %", "setting": "[1]; [6]", "value": "53.69 ± 0.84^a %"}, {"measurement": "Sperm viability %", "setting": "[1]; [6]", "value": "56.49 ± 1.32^a %"}, {"measurement": "Semen motility %", "setting": "[1]; 1.5 g/L in base diluent, Day 0", "value": "81.36 ± 2.05", "unit": "%"}, {"measurement": "Sperm viability %", "setting": "[1]; 1.5 g/L in base diluent, Day 0", "value": "84.12 ± 2.15", "unit": "%"}, {"measurement": "Semen motility %", "setting": "[1]; [7]", "value": "47.32 ± 2.41^c %"}, {"measurement": "Sperm viability %", "setting": "[1]; [7]", "value": "50.52 ± 2.74^b %"}, {"measurement": "Semen motility %", "setting": "[1]; 2.0 g/L in base diluent, Day 0", "value": "81.36 ± 2.05", "unit": "%"}, {"measurement": "Sperm viability %", "setting": "[1]; 2.0 g/L in base diluent, Day 0", "value": "84.12 ± 2.15", "unit": "%"}, {"measurement": "Semen motility %", "setting": "[1]; [8]", "value": "45.55 ± 1.52^d %"}, {"measurement": "Sperm viability %", "setting": "[1]; [8]", "value": "45.36 ± 2.31^c %"}, {"measurement": "Plasma membrane integrity of sperms", "setting": "[2]; [9]", "value": 58.93, "unit": "%"}, {"measurement": "Plasma membrane integrity of sperms, T group vs NC group", "setting": "[2]; [10]", "value": "significantly higher"}, {"measurement": "Acrosome integrity of sperms", "setting": "[3]; [9]", "value": 60.12, "unit": "%"}, {"measurement": "Acrosome integrity of sperms, T group vs NC group", "setting": "[3]; [10]", "value": "significantly higher"}, {"measurement": "GSH-Px, T group vs NC group", "setting": "[4]; day 1 of preservation", "value": "not significantly different"}, {"measurement": "MDA, T group vs NC group", "setting": "[4]; day 1 of preservation", "value": "not significantly different"}, {"measurement": "T-AOC, T group vs NC group", "setting": "[4]; day 1 of preservation", "value": "not significantly different"}, {"measurement": "CAT enzyme activity, T group vs NC group", "setting": "[4]; day 1 of preservation, P<0.05", "value": "significantly increased"}, {"measurement": "Level of ROS, T group vs NC group", "setting": "[4]; day 1 of preservation, P<0.05", "value": "significantly decreased"}, {"measurement": "SOD enzyme activity, T group vs NC group", "setting": "[4]; day 1 of preservation, P<0.05", "value": "significantly increased"}, {"measurement": "Level of CAT, T group vs NC group", "setting": "[4]; [11]", "value": "significantly higher"}, {"measurement": "Level of GSH-Px, T group vs NC group", "setting": "[4]; [11]", "value": "significantly higher"}, {"measurement": "Level of MDA, T group vs NC group", "setting": "[4]; [11]", "value": "significantly lower"}, {"measurement": "Level of ROS, T group vs NC group", "setting": "[4]; [11]", "value": "significantly lower"}, {"measurement": "Level of SOD, T group vs NC group", "setting": "[4]; [11]", "value": "significantly higher"}, {"measurement": "Level of T-AOC, T group vs NC group", "setting": "[4]; [11]", "value": "significantly higher"}]}]}
